# Entries after “also recorded” stand apart in the source; their conditions may differ.
# What was measured:
# [1] = tested on: ndvA (FeuP regulated), SMc 01581 (ExoS regulated); assay: qRT-PCR of FeuP and ExoS regulated genes; assay type: cell-based, Sinorhizobium meliloti; details: 2 μM, 30 mins; listed as L-NCR247
# Description: FIG. 17. […] The data are expressed as starting quantities (SQ) of respective mRNAs normalized to the control gene SMc00128 and are presented as average of three technical replicates FIG. 18. NCR247 binds heme and this heme sequestration leads to an iron starvation response in S. meliloti and this happens in the cytoplasm since a bacA mutant is defective in inducing iron import genes. […] The data are expressed as starting quantities (SQ) of respective mRNAs normalized to the control gene SMc00128 and are presented as average of three technical replicates. […] Data are presented as average of three technical replicates
# RNA isolation and qRT-PCR analysis: Cells were grown in LB until they reached an O.D.600 nm of 0.2. Then cells were spun down and suspended in minimal media with or without appropriate FeSO4 concentrations for 1 hour. NCR247 was then added and 5 ml of appropriate cultures were spun down at given time intervals. Total RNA was extracted using Trizol™ (Thermo Fisher Scientific) method. Qiagen RNeasy™ kit was used to purify the RNA. […] The standard curve method was used for relative quantification. […] This curve was then used for extrapolating relative expression level of each gene of interest in a particular sample to obtain the starting quantities (SQ). […] These normalized values are then expressed as an average of triplicates, with standard deviation (s.d.) represented by the error bars. […]
# Sinorhizobium meliloti = assay: S. meliloti growth curve; assay type: cell-based; details: increasing amounts of peptide; minimal medium
# Description: Growth curve: All growth curve experiments were performed in a Tecan SPARK 10M microplate reader using polystyrene flat bottomed, non-treated, sterile 96 well plates. Overnight cultures grown in LBMC were washed and were subcultured (1:100 dilution) in minimal medium supplemented with respective iron concentrations. The plates were programed to continuously shake at 150 rpm and temperature maintained at 30° C. Optical density was measured at 600 nm every 60 minutes.
# [2] = Biolayer interferometry of heme binding
# Description: Biotinylation of heme: Hemin was biotinylated using the method exactly as described previouslyl^16. Biotin hydrazide, DCC was purchased from Sigma. COSMOSIL™ 5C18-AR-II Packed Column, 4.6 mm I.D.×150 mm from Nacalai USA (San Diego, CA) was used to separate the products. LC-MS was used to verify the correct molecular weight (969.4 Da) of biotinylated heme (in which only one of the two propionate groups of protoheme was conjugated with biotin hydrazide) as described above.
# Biolayer interferometry: Biolayer interferometry was carried out using a ForteBio Octet RED96™ biolayer interferometer, following the manufacturer's instructions for a standard kinetic assay. Streptavidin-coated biosensor tips were incubated in 200 μl assay buffer (Water [pH 7.4]), each for 60s. Then biotinylated heme (or NCR247 in the case of Fe(III) PPIX dimethyl ester chloride) was loaded onto each biosensor tip at the defined concentration until the binding signal reached a value of >1.4. Biosensor tip loading was followed by incubation in assay buffer for 60s. Association between the ligand-heme and the analyte-various variants of NCR247 (Increasing concentrations in assay buffer) was observed over a time frame of ˜116 s, in assay buffer. To stop binding kinetics for dissociation, the biosensor tips were placed back into assay buffer not containing any analyte, for 120 s. Curves were fit with Global fit analysis and Data analysis and KD calculation was performed using Fortebio™ data analyses 8.2 software as described previously^89.
# Z-ring (FtsZ-GFP) = assay: Z-ring formation, FtsZ-GFP fluorescent microscopy; assay type: cell-based, Sinorhizobium meliloti; details: 2 μM, 200 mins; listed as L-NCR247
# Description: FIG. 15. […] Visualization of Z-ring formation during cell division by FtsZ-GFP labeled cells using fluorescent microscopy. Data indicates percentage of cells displaying fully formed Z-rings when synchronized and treated with upon treatment with 2 μM of L or D-NCR247 for 200 mins. […] Data are presented as average of three biological replicates ±s.d.
# Since NCR247 treatment leads to gene expression change in several genes of the CtrA regulon, we investigated the CtrA regulon and the cell division inhibition role of NCR247. […] In addition, this phenotype is retained in a peptide transporter bacA mutant indicating cell division inhibition happens due to protein-peptide interaction outside the cytoplasm.
# Aβ (1-42)-heme complex = biological target: T1, Aβ (1-42)-heme complex (Homo sapiens, UniProt P05067); assay: Peroxidase assay of Aβ-heme complex on TMB; assay type: biochemical; details: equimolar addition of NCR247
# T1 construct: equimolar addition of NCR247 to the Aβ (1-42) amyloid peptide-heme complex; purchased Genscript
# ctrA = assay: qRT-PCR of ctrA; assay type: cell-based, Sinorhizobium meliloti; details: 2 μM, 30 mins; listed as L-NCR247
# Description: FIG. 16. […] The data are expressed as starting quantities (SQ) of respective mRNAs normalized to the control gene SMc00128 and are presented as average of three technical replicates
# RNA isolation and qRT-PCR analysis: Cells were grown in LB until they reached an O.D.600 nm of 0.2. Then cells were spun down and suspended in minimal media with or without appropriate FeSO4 concentrations for 1 hour. NCR247 was then added and 5 ml of appropriate cultures were spun down at given time intervals. Total RNA was extracted using Trizol™ (Thermo Fisher Scientific) method. Qiagen RNeasy™ kit was used to purify the RNA. On-column DNA removal was carried out using DNase I from NEB. 500 ng of each RNA sample was used to make cDNA using the iScript™ cDNA synthesis kit (Biorad). qRT-PCRs were performed as described previously^86. The standard curve method was used for relative quantification. In short, a standard curve was generated for each gene of interest (including SMc00128) by setting up qpCR reactions to amplify increasing amounts of S. meliloti Rm 1021 genomic DNA. […] This curve was then used for extrapolating relative expression level of each gene of interest in a particular sample to obtain the starting quantities (SQ). […] These normalized values are then expressed as an average of triplicates, with standard deviation (s.d.) represented by the error bars. […]
# S. meliloti = assay: Radioactive 55Fe uptake assay; assay type: cell-based, Sinorhizobium meliloti; details: 2 μM, medium with sufficient iron
# Description: Iron uptake assay: Radioactive ^55Fe uptake assays were performed as described previously^66 with some modifications. Cells were grown in LB to an O.D.600 nm of 0.2. 20 ml cultures were then spun down, and suspended in 20 ml minimal media with 5 μM FeSO4 for 1 hour. 2 μM NCR247 and then 100 μM sodium ascorbate was added, and cells were incubated for additional 30 mins. At time 0, 1 μM^55FeCl3 mixed with ascorbate was added. At given time points, 1 ml aliquots were taken and quenched in 3 ml of ice-cold quench buffer (0.1M Tris, 1 mM ascorbate, and 100 μM FeSO4, pH 6.0). The cells were collected immediately after quenching on 0.45-μm filters, presoaked in quench buffer using a Millipore sigma 1225 vacuum filtration unit. The radioactive ^55Fe content of the filters with cells was counted using a scintillation counter. Internalized ^55Fe levels were normalized to the protein levels in the cell.
# T1 sequence (P05067 672-713 limits assumed, one chain of several): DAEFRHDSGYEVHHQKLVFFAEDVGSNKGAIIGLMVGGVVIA
sequence,measurement,setting,value
RNGCIVDPRCPYQQCRRPLYCRRR [NCR247],water solubility,Water solubility,highly water soluble
same,expression of FeuP and ExoS regulated genes,[1],increased in expression; also recorded: increase in expression of ndvA
same,inhibition of growth of S. meliloti (bacteriostatic effect),Sinorhizobium meliloti,reduction in growth rate; also recorded: inhibits the growth of Sinorhizobium meliloti
same,Kd,"[2]; biotinylated heme as ligand, peptide as analyte",~1 nM
same,"heme binding affinity, in words",[2]; compared with NCR247 (L-enantiomer),binds heme with nanomolar affinity
same,formation of Z-ring,Z-ring (FtsZ-GFP),results in inhibition of assembly of the Z-ring; also recorded: greatly reduced
same,peroxidase activity of Aβ (1-42)-heme complex,Aβ (1-42)-heme complex,quenches its peroxidase activity
same,expression of ctrA,ctrA,lowers the expression of CtrA; also recorded: decrease in expression of ctrA
same,uptake of 55Fe,S. meliloti,markedly increased the import of ^55Fe
